In ChEMBL document CHEMBL1201862, “PubChem BioAssay data set” (2004) one finds EC50 and IC50 data, which are given here for two compounds.

The source made the active and inactive calls. Bounds are passed on as bounds.

The target of assay [1] is T1, Serine/threonine-protein phosphatase (Candida dubliniensis (strain CD36 / CBS 7987 / NCPF 3949 / NRRLY-17841) (Yeast), UniProt B9W6M3).
T1 sequence (B9W6M3 whole entry): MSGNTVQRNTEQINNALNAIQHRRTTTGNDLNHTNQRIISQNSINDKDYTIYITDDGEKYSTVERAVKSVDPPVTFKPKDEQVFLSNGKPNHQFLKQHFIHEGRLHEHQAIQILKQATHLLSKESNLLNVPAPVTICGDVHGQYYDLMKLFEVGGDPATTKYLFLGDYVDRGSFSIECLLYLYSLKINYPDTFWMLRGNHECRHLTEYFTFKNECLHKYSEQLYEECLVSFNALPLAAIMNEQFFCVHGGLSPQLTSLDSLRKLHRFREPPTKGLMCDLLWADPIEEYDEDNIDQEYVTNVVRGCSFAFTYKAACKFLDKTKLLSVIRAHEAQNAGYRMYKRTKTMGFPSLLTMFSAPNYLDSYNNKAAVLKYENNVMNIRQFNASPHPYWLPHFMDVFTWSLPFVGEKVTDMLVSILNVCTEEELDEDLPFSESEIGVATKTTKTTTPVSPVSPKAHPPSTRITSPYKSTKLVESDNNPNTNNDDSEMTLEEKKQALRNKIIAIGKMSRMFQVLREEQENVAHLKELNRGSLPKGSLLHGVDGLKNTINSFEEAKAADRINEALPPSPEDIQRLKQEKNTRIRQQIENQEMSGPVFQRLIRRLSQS
As to the kind of experiment: calcineurin pathway inhibitors in yeast reporter, dose response, S. cerevisiae, CDRE-lacZ, luminescence, secondary (AID 2388).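 Further: yeast reporter cells carrying a calcineurin-responsive lacZ construct stimulated with calcium chloride; luminescent beta-galactosidase reporter signal in whole cells rather than isolated phosphatase activity; potency for inhibition where a drop in reporter signal means calcineurin blockade.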 In kind it is functional, cell-based.

The nature of assay [2]: C. albicans growth with fluconazole, confirmation, fluorescence, retest (AID 2467). In kind it is functional, cell-based.
Assay [3] deals with T2, Sentrin-specific protease 6 (Homo sapiens, UniProt Q9GZR1).
T2 sequence (Q9GZR1 whole entry): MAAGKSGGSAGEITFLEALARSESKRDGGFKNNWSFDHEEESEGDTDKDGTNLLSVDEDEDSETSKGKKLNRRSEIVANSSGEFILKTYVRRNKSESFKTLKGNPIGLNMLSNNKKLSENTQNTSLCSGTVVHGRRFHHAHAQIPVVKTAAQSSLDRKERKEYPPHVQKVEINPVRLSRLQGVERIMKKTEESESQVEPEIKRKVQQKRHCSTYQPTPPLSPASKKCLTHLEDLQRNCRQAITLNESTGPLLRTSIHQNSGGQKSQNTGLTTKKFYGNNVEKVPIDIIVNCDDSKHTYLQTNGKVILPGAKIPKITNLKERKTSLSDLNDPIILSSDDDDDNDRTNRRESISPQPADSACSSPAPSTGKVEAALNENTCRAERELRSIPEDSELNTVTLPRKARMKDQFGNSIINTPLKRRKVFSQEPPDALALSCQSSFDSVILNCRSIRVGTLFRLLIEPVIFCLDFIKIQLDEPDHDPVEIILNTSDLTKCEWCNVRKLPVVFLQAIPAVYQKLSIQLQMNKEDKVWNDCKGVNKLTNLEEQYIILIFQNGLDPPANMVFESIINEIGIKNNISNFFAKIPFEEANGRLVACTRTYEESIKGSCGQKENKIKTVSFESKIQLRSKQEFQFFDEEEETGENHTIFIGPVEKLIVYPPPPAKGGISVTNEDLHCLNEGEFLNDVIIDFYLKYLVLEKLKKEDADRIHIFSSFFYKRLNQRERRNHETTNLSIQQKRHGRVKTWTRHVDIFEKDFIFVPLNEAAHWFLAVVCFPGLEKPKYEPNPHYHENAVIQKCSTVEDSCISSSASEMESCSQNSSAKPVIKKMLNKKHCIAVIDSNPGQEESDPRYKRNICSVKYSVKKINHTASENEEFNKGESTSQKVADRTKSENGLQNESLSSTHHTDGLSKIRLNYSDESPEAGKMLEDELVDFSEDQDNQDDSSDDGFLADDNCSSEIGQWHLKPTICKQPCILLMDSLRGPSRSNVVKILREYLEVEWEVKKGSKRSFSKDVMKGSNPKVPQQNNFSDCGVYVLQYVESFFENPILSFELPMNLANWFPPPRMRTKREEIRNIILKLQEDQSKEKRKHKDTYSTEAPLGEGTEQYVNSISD
It counts as functional.

Assay [4] concerns the target T3, Sentrin-specific protease 8 (Homo sapiens, UniProt Q96LD8).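 Further: luminescence read-out of SENP8 inhibition, dose-response confirmation following an ultra-high-throughput screen.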
T3 sequence (Q96LD8 whole entry): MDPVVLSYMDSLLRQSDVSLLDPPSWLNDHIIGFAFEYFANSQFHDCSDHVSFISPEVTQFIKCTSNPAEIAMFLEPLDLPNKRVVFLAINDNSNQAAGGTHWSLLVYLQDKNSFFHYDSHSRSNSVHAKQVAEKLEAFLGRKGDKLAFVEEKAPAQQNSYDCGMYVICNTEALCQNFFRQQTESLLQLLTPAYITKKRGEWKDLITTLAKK
In kind it is functional.

Assay [5] relates to Streptococcus sp. 'group A'. As to the kind of experiment: growth inhibition of control SK(-) GAS strain, dose response, counter-screen for streptokinase expression inhibitor project, luminescence, kanamycin, BacTiterGlo, confirmation (AID 1900). In kind it is functional, organism-based. (In general: A counterscreen serves to expose hits that act by an unwanted route or on another target.)

Assay [6] has as its system Streptococcus. As to the kind of experiment: Group A Streptococcus viability loss, dose response, counter-screen for streptokinase expression inhibitor project, luminescence, BacTiterGlo (AID 1915).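 Further: potency for reduction of bacterial viability or growth.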 It counts as functional, organism-based.
The target of assay [7] is Genome polyprotein (dengue virus type 2, UniProt P29990). As to the kind of experiment: Dengue-2 NS5 methyltransferase inhibitors, primary screen, biochemical, confirmation dose response (AID 588689). In kind it is functional.
Genome polyprotein, sequence (P29990 2492-3391 limits assumed): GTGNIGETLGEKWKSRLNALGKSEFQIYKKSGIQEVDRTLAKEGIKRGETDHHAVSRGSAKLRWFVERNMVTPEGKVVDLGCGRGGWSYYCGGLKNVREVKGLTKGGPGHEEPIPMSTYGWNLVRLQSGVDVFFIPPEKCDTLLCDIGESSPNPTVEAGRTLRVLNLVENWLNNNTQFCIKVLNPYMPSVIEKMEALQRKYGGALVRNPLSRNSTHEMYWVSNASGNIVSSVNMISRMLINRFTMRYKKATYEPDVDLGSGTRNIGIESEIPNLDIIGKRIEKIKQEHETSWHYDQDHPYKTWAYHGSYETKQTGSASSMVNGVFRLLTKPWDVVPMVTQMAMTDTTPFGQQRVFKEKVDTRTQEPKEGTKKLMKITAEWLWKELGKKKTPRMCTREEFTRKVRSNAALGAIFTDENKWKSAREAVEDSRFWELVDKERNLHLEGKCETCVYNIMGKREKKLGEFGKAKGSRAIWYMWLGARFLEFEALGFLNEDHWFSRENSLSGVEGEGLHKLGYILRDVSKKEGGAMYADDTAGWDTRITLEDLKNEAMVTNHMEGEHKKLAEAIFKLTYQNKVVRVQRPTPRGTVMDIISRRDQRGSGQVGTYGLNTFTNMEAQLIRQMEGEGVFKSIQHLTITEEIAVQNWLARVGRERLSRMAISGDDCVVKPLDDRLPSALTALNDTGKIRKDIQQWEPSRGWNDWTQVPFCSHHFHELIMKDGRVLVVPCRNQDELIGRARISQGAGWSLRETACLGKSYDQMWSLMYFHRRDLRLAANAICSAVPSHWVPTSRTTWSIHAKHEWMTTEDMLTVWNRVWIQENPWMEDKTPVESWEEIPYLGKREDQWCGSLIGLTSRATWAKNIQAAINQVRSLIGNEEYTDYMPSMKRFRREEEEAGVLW
Assay [8] addresses Serine/threonine-protein phosphatase (Homo sapiens, UniProt Q9BPW0). As to the kind of experiment: PP5 phosphatase inhibitors, dose response, biochemical, fluorescence (AID 2395).

Serine/threonine-protein phosphatase (Homo sapiens, UniProt Q9BPW0), sequence (Q9BPW0 whole entry): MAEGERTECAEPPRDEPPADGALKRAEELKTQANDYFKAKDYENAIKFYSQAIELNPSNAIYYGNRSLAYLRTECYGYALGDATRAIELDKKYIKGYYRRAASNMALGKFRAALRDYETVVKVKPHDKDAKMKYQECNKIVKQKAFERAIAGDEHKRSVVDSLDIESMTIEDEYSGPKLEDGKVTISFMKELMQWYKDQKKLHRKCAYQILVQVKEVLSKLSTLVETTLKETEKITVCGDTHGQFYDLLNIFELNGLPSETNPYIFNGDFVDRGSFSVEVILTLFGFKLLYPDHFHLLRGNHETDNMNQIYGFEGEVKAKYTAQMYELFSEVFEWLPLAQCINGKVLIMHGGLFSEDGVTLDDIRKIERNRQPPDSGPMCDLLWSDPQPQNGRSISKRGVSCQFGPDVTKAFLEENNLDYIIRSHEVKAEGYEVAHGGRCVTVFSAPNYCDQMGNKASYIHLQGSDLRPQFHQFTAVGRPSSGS

As a reminder, the EC50 is the concentration needed to bring the measured effect to its halfway point. The IC50 is the concentration at which inhibition is half-maximal. `Cc1ccc(NC2=CC(=O)C(=O)c3ccccc32)cc1`: the EC50 was > 180 µM (inactive) in assay [1] and 0.451 µM (active) in assay [2]. Besides, the concentration for half-maximal inhibition (IC50) in assay [3] is 13.5 µM (active); in assay [4], 21.6 µM (active).

For `O=C(O)c1ccc(S(=O)(=O)/N=C2\C=C(Nc3ccccc3F)C(=O)c3ccccc32)cc1`, the 50% effective concentration (EC50) in assay [5] is 5.74 µM (active); in assay [6] it was 4.05 µM (active). Further, the 50% inhibitory concentration (IC50) is 11.2 µM (active) in assay [7] and > 67 µM (not active) in assay [8].
